Assay results taken from ChEMBL document CHEMBL4610123, “Structure-Based Drug Discovery of N-((R)-3-(7-Methyl-1H-indazol-5-yl)-1-oxo-1-(((S)-1-oxo-3-(piperidin-4-yl)-1-(4-(pyridin-4-yl)piperazin-1-yl)propan-2-yl)amino)propan-2-yl)-2'-oxo-1',2'-dihydrospiro[piperidine-4,4'-pyrido[2,3-d][1,3]oxazine]-1-carboxamide (HTL22562): A Calcitonin Gene-Related …” (J Med Chem, 2020).
In brackets after ≈: the same amount, converted by molar mass.

Key:
[1] = target: T1, Calcitonin-gene-related peptide receptor, CALCRL/RAMP1 (Homo sapiens, UniProt O60894+Q16602); test: Antagonist activity at human CGRP receptor in human SK-N-MC cells assessed as inhibition of CGRP-induced cAMP production preincubated for 30 mins followed by CGRP addition and measured after 30 mins by HTRF assay; format: functional, cell-based
T1 sequence (O60894 whole entry): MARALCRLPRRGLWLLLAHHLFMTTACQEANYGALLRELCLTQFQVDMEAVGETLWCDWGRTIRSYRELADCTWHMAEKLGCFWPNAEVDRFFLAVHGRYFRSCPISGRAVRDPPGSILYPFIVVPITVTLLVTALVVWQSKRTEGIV
T1 sequence (Q16602 whole entry): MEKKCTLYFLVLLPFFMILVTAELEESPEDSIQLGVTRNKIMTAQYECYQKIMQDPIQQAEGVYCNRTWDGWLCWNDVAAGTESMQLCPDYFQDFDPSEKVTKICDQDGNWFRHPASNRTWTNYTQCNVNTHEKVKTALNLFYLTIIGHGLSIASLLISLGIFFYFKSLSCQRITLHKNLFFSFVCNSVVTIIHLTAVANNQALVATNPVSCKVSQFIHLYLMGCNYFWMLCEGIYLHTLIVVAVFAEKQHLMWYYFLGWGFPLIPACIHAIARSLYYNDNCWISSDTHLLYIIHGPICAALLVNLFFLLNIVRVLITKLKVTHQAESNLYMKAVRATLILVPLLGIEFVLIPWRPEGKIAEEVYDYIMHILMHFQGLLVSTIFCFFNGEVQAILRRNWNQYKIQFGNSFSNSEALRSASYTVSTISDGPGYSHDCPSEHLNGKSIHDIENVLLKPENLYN

[2] = Binding affinity to cynomolgus monkey CGRP receptor; design: species or system Macaca fascicularis
hERG (KCNH2) = hERG (KCNH2) (Homo sapiens, UniProt Q12809); test: Inhibition of human ERG at 300 uM relative to control
Chain of hERG (KCNH2) (Q12809 whole entry): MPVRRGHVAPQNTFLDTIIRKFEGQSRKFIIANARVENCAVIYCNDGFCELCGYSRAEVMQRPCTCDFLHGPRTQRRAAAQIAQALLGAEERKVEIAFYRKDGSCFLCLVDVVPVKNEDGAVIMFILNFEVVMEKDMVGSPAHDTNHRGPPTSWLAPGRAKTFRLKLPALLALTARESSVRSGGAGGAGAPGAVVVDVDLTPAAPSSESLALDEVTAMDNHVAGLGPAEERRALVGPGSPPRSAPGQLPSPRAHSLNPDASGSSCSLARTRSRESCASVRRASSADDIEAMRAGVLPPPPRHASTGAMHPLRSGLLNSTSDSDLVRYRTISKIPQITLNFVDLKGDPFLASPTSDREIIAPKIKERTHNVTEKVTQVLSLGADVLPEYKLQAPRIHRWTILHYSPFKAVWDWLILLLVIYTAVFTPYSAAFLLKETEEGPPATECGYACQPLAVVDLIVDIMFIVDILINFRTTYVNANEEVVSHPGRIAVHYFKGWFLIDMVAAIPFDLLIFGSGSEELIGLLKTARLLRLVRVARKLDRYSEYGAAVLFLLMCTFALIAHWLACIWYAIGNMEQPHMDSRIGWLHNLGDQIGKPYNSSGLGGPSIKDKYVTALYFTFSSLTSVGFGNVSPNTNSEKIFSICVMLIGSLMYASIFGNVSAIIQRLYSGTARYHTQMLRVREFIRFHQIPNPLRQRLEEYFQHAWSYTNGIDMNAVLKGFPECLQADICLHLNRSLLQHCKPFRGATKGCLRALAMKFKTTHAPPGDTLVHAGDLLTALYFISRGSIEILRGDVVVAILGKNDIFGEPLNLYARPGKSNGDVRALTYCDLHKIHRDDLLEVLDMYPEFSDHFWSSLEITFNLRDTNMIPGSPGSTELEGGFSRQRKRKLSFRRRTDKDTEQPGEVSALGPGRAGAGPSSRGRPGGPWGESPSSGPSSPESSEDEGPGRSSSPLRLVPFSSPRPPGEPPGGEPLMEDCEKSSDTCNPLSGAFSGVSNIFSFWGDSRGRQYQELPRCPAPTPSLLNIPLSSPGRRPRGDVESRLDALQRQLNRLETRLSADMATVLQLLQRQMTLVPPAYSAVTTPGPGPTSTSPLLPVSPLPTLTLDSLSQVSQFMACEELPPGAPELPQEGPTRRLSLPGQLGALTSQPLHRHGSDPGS

[3] = Solubility of the compound at pH 5.7 using amorphous form of sample; format: physicochemical; conditions: buffer
[4] = test system: CALCRL/RAMP2 (adrenomedullin AM1 receptor) (Homo sapiens); test: Antagonist activity at human adrenomedullin-1 receptor
Cytochrome P450 3A4 = Cytochrome P450 3A4 (Homo sapiens, UniProt P08684); test: Inhibition of CYP3A4 (unknown origin); format: ADME
Chain of Cytochrome P450 3A4 (P08684 whole entry): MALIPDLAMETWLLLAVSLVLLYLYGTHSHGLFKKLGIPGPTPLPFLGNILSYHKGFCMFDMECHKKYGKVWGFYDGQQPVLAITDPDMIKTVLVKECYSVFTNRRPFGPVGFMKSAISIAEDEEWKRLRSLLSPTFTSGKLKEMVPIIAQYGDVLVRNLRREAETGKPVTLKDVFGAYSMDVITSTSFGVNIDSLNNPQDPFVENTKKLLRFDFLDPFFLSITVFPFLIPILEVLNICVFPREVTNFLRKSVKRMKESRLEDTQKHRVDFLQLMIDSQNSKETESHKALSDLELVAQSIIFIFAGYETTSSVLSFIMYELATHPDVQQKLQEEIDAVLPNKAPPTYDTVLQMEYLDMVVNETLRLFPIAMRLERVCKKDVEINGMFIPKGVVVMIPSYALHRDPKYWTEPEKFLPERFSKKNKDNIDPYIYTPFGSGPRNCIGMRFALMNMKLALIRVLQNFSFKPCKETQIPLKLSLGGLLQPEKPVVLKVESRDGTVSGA

[5] = target: Amylin receptor AMY1, CALCR/RAMP1 (Homo sapiens) (UniProt P30988+O60894); test: Antagonist activity at human amylin-1 receptor; format: protein-complex assay
Homo sapiens = species: Homo sapiens; test: Selectivity ratio of antagonist activity at amylin-1 receptor (unknown origin) to antagonist activity at human CGRP receptor in human SK-N-MC cells; format: cell-based
[6] = Half life in human hepatocytes; format: ADME, cell-based, Hepatocyte
[7] = target: T1, Calcitonin-gene-related peptide receptor, CALCRL/RAMP1; test: Displacement of [3H]telcagepant from recombinant human CLR/RAMP1 expressed in Sf21 insect cell membranes measured after 60 mins by microbeta scintillation counting method
[8] = Lipophilicity, log D of the compound at pH 7.4; format: physicochemical; conditions: buffer
[9] = Half life in dog hepatocytes; format: ADME, cell-based, Canis lupus familiaris, Hepatocyte
[10] = Genotoxicity in Salmonella typhimurium TA100 by mini AMES test; format: toxicity; conditions: salmonella enterica subsp. enterica serovar typhimurium
[11] = target: T2, Mas-related G-protein coupled receptor member X2 (Homo sapiens) (UniProt Q96LB1); test: Agonist activity at MRGPX2 (unknown origin) at 10 uM relative to control
T2 sequence (whole entry): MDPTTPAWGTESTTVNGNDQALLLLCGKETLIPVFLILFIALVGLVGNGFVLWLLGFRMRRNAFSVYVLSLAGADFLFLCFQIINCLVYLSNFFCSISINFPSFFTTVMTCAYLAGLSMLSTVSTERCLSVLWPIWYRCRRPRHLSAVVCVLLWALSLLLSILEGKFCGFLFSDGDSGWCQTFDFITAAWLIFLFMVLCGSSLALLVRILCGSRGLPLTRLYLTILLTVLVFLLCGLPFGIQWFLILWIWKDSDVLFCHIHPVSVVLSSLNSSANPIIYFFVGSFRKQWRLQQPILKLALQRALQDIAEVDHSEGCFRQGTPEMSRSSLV

[12] = target: Calcitonin-gene-related peptide receptor; CALCRL/RAMP1 (Rattus norvegicus) (UniProt Q63118+Q9JJ74); test: Antagonist activity at rat CGRP receptor; format: protein-complex assay
[13] = Half life in rat at 1 mg/kg, sc; format: ADME, organism-based; conditions: in vivo
[14] = target: T3, Muscarinic acetylcholine receptor M2 (Homo sapiens) (UniProt P08172); test: Antagonist activity at CHRM2 (unknown origin) at 10 uM relative to control
T3 sequence (whole entry): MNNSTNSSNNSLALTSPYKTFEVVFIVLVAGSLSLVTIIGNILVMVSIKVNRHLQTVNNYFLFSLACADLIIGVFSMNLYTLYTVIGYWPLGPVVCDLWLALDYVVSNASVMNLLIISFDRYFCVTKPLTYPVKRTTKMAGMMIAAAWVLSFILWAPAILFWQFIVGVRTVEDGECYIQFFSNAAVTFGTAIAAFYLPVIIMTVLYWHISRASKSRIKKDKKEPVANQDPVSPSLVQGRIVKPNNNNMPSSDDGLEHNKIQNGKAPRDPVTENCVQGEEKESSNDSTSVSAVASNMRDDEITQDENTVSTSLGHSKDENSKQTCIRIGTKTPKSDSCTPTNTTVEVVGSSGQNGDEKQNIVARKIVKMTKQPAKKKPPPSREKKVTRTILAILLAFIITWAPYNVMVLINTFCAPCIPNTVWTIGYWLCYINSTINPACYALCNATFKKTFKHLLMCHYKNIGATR

[15] = Tmax in cynomolgus monkey at 0.013 mg/kg, sc; format: ADME, organism-based, Macaca fascicularis; conditions: in vivo
Cytochrome P450 2D6 = Cytochrome P450 2D6 (Homo sapiens, UniProt P10635); test: Inhibition of CYP2D6 (unknown origin); format: ADME
Chain of Cytochrome P450 2D6 (P10635 whole entry): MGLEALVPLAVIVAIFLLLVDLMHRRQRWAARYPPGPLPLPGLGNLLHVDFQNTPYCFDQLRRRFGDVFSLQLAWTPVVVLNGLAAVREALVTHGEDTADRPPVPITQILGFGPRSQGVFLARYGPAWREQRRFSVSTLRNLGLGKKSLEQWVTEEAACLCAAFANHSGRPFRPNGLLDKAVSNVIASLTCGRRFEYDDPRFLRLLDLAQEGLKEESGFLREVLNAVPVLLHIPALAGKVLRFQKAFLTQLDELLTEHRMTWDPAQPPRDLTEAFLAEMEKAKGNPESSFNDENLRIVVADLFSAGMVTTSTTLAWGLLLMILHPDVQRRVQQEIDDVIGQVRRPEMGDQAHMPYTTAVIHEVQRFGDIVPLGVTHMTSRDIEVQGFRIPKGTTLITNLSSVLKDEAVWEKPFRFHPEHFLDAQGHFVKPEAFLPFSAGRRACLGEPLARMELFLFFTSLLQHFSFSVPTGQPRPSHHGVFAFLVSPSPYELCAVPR

Cytochrome P450 2C19 = Cytochrome P450 2C19 (Homo sapiens, UniProt P33261); test: Inhibition of CYP2C19 (unknown origin); format: ADME
Chain of Cytochrome P450 2C19 (P33261 whole entry): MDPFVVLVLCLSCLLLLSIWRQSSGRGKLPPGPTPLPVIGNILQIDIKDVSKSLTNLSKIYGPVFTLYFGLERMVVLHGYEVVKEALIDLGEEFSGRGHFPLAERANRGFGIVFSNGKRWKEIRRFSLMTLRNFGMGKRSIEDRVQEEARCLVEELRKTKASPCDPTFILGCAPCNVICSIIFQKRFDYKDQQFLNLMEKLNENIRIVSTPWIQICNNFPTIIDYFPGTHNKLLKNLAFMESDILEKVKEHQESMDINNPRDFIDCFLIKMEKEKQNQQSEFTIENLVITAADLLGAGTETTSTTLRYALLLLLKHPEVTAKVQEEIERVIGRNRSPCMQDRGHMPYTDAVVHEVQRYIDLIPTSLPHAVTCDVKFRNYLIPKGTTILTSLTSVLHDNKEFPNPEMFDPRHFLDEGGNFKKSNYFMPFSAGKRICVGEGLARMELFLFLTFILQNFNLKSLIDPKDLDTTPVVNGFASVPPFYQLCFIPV

[16] = Half life in cynomolgus monkey at 0.5 mg/kg, sc; format: ADME, organism-based, Macaca fascicularis; conditions: in vivo
[17] = Stability of the compound in pH 3 solution at 50 degC assessed as loss of purity after 1 week; format: physicochemical; conditions: read-out: Drug degradation
[18] = Solubility of the compound at pH 8.2 using amorphous form of sample; format: physicochemical; conditions: buffer
[19] = Oral bioavailability in rat at 1 mg/kg; format: ADME, organism-based; conditions: in vivo
[20] = Clearance in cynomolgus monkey at 0.5 mg/kg, iv; format: ADME, organism-based, Macaca fascicularis; conditions: in vivo
[21] = Genotoxicity in Salmonella typhimurium TA98 by mini AMES test; format: toxicity; conditions: salmonella enterica subsp. enterica serovar typhimurium
Cytochrome P450 1A2 = target: T4, Cytochrome P450 1A2 (Homo sapiens, UniProt P05177); test: Inhibition of CYP1A2 (unknown origin); format: ADME
T4 sequence (P05177 whole entry): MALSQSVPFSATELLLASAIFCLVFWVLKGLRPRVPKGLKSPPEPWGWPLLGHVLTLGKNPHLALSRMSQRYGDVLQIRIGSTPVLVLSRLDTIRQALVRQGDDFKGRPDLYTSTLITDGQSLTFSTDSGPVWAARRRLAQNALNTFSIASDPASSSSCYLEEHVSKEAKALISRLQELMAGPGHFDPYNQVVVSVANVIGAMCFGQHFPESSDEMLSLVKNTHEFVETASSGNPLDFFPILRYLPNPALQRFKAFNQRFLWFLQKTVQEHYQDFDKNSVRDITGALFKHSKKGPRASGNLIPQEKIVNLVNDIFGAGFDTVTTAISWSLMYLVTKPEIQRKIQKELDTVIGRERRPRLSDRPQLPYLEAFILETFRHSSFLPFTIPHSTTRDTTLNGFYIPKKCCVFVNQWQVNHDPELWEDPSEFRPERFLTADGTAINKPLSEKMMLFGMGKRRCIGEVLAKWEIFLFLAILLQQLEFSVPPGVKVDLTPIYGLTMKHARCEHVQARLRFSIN

[22] = Volume of distribution at steady state in rat at 2 mg/kg, iv; format: ADME, organism-based; conditions: in vivo, read-out: Vdss
[23] = Clearance in dog at 0.5 mg/kg, iv; format: ADME, organism-based, Canis lupus familiaris; conditions: in vivo
[24] = Solubility of the compound at pH 4 using amorphous form of sample; format: physicochemical; conditions: buffer
[25] = Apparent permeability across apical to basolateral side in MDCK cells; format: ADME, cell-based, Canis lupus familiaris; conditions: dog
[26] = Protein binding in rat plasma by high-throughput dialysis method; format: ADME, cell-free; conditions: read-out: PPB (converted)
[27] = Genotoxicity in Salmonella typhimurium TA1537 by mini AMES test; format: toxicity; conditions: salmonella enterica subsp. enterica serovar typhimurium

SMILES: Cc1cc(C[C@@H](NC(=O)N2CCC3(CC2)OC(=O)Nc2ncccc23)C(=O)N[C@@H](CC2CCNCC2)C(=O)N2CCN(c3ccncc3)CC2)cc2cn[nH]c12 [HTL-0022562]
- pKb [1]: 10.2
- pKi [2]: 11.3
- inhibition at 300 µM (hERG (KCNH2)): 6%
- solubility [3]: 115 mg/mL (≈ 151 mM)
- pKb [4]: < 5.7
- IC50 (Cytochrome P450 3A4): > 50.1 µM
- pKb [5]: < 6.3
- Selectivity ratio (Homo sapiens): > 8000
- half-life [6]: > 5 h
- Ki [7]: 0.0316 nM
- logD [8]: -0.4
- half-life [9]: > 5 h
- Activity [10]: Non-Toxic
- Activity [11]: 80%
- pKb [12]: < 7
- half-life [13]: 2.6 h
- inhibition [14]: 65%
- Tmax [15]: 0.8 h
- IC50 (Cytochrome P450 2D6): > 50.1 µM
- IC50 (Cytochrome P450 2C19): > 50.1 µM
- half-life [16]: 3.6 h
- degraded at 168 h [17]: 0.4%
- solubility [18]: 9 mg/mL (≈ 11.8 mM)
- bioavailability [19]: 123%
- clearance [20]: 2 mL/min/kg
- Activity [21]: Non-Toxic
- IC50 (Cytochrome P450 1A2): > 50.1 µM
- Vd [22]: 1 L/kg
- clearance [23]: 10 mL/min/kg
- solubility [24]: 174 mg/mL (≈ 228 mM)
- Papp A→B [25]: 0.8 ×10⁻⁶ cm/s
- fraction unbound [26]: 0.59
- Activity [27]: Non-Toxic
